Common to all, as to assay: relative viability (nuclei count vs DMSO), 5 days (fraction); higher = more cells survive
Compound in assay [1]: CC1=C(C(=NN1)C)CC2=C(C3=C(S2)N(C(=O)N(C3=O)C)CC(C)C)C(=O)N4C[C@@H](CO4)O + Cc1nc(NC(=O)N2CCC[C@H]2C(N)=O)sc1-c1ccnc(C(C)(C)C(F)(F)F)c1 [Alpelisib] (partner 2 µM)
In short, it runs like this:
(§1)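 A single step with final 0.05% Triton X-100, 1% formaldehyde and 1 ug/ml Hoechst fixed the cells and stained nuclei 5 days after treatment. Lung cancer cell lines in 1536-well plates had been treated by pin tool the day after seeding with one drug alone or a fixed anchor-drug dose plus five library-drug doses (not always all listed) in √10 steps, and nuclei were counted on 4× images. Relative viability is the ratio of nuclei in treated wells to nuclei in vehicle wells, taken as the median of duplicate plates.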

Compound in assay [2]: CC1=C(C(=NN1)C)CC2=C(C3=C(S2)N(C(=O)N(C3=O)C)CC(C)C)C(=O)N4C[C@@H](CO4)O + N=C(N)NC(=N)NCCc1ccccc1 [Phenformin] (partner 250 µM)
The method in brief: as §1

Compound in assay [3]: Cc1ccccc1C(C(=O)NC1CCCCC1)N(C(=O)Cn1ccnc1C)c1cccc(F)c1 [IDH-C35] + O=C(CCCCCCC(=O)Nc1ccccc1)NO [Vorinostat] (partner 1 µM)
The method in brief: as §1

Compound in assay [4]: CC1=C(C(=NN1)C)CC2=C(C3=C(S2)N(C(=O)N(C3=O)C)CC(C)C)C(=O)N4C[C@@H](CO4)O + CC(=O)Nc1cccc(-n2c(=O)n(C3CC3)c(=O)c3c(Nc4ccc(I)cc4F)n(C)c(=O)c(C)c32)c1 [Trametinib] (partner 0.02 µM)
The method in brief:
as §1

Turning to PC-3 [JPC-3], the relative viability in assay [1] (first compound 0.0025 µM) amounted to 1.02; in assay [1] (first compound 0.007906 µM) it was 1.03; in assay [1] (first compound 0.025 µM) it was 1; in assay [1] (first compound 0.07906 µM), 1.01; in assay [1] (first compound 0.25 µM) it was 1.06; in assay [2] (first compound 0.0025 µM) it was 0.467. The relative viability in assay [2] (first compound 0.007906 µM) stood at 0.461; in assay [2] (first compound 0.025 µM), 0.477; in assay [2] (first compound 0.07906 µM), 0.461; in assay [2] (first compound 0.25 µM) it was 0.447; in assay [3] (first compound 0.08 µM), 0.748; in assay [3] (first compound 0.253 µM), 0.815. Also, the relative viability was determined as 0.768 in assay [3] (first compound 0.8 µM); 0.988 in assay [3] (first compound 2.53 µM); 0.814 in assay [3] (first compound 8 µM); 0.74 in assay [4] (first compound 0.0025 µM); 0.649 in assay [4] (first compound 0.007906 µM); 0.718 in assay [4] (first compound 0.025 µM). Besides, the relative viability is 0.678 in assay [4] (first compound 0.07906 µM) and 0.682 in assay [4] (first compound 0.25 µM).
For the cell line PC-14, the relative viability in assay [1] (first compound 0.0025 µM) turned out to be 1.05; in assay [1] (first compound 0.007906 µM), 0.877; in assay [1] (first compound 0.025 µM), 0.886; in assay [1] (first compound 0.07906 µM) it was 0.974; in assay [1] (first compound 0.25 µM), 0.975; in assay [2] (first compound 0.0025 µM) it was 0.548. Further, the relative viability in assay [2] (first compound 0.007906 µM) came out at 0.585; in assay [2] (first compound 0.025 µM), 0.317; in assay [2] (first compound 0.07906 µM) it was 0.586; in assay [2] (first compound 0.25 µM), 0.74; in assay [3] (first compound 0.08 µM), 0.749; in assay [3] (first compound 0.253 µM) it was 0.81. The relative viability amounted to 0.748 in assay [3] (first compound 0.8 µM); 0.76 in assay [3] (first compound 2.53 µM); 0.649 in assay [3] (first compound 8 µM); 0.795 in assay [4] (first compound 0.0025 µM); 0.839 in assay [4] (first compound 0.007906 µM); 0.784 in assay [4] (first compound 0.025 µM). In addition, the figures for the relative viability in assay [4] (first compound 0.07906 µM) and in assay [4] (first compound 0.25 µM) were 0.917 and 0.929, respectively.
As to RERF-LC-KJ, the relative viability in assay [1] (first compound 0.0025 µM) amounted to 0.977; in assay [1] (first compound 0.007906 µM), 0.939; in assay [1] (first compound 0.025 µM), 0.92; in assay [1] (first compound 0.07906 µM) it was 0.775; in assay [1] (first compound 0.25 µM) it was 0.964; in assay [2] (first compound 0.0025 µM), 0.434. The relative viability came out at 0.46 in assay [2] (first compound 0.007906 µM); 0.431 in assay [2] (first compound 0.025 µM); 0.428 in assay [2] (first compound 0.07906 µM); 0.481 in assay [2] (first compound 0.25 µM); 0.655 in assay [3] (first compound 0.08 µM); 0.636 in assay [3] (first compound 0.253 µM). For the same cell line, the relative viability was 0.698 in assay [3] (first compound 0.8 µM); 0.718 in assay [3] (first compound 2.53 µM); 0.754 in assay [3] (first compound 8 µM); 0.898 in assay [4] (first compound 0.0025 µM); 0.94 in assay [4] (first compound 0.007906 µM); 0.838 in assay [4] (first compound 0.025 µM). The results for the relative viability in assay [4] (first compound 0.07906 µM) and in assay [4] (first compound 0.25 µM) were 0.883 and 0.909, respectively.
Turning to SK-LU-1, the relative viability in assay [1] (first compound 0.0025 µM) turned out to be 0.879; in assay [1] (first compound 0.007906 µM), 0.565; in assay [1] (first compound 0.025 µM), 0.537; in assay [1] (first compound 0.07906 µM) it was 0.782; in assay [1] (first compound 0.25 µM), 0.582; in assay [2] (first compound 0.0025 µM) it was 0.338. Moreover, the relative viability in assay [2] (first compound 0.007906 µM) was found to be 0.234; in assay [2] (first compound 0.025 µM), 0.191; in assay [2] (first compound 0.07906 µM), 0.202; in assay [2] (first compound 0.25 µM), 0.223; in assay [3] (first compound 0.08 µM), 0.733; in assay [3] (first compound 0.253 µM), 0.752. Further, the relative viability in assay [3] (first compound 0.8 µM) is 0.892; in assay [3] (first compound 2.53 µM) it was 0.831; in assay [3] (first compound 8 µM), 0.778; in assay [4] (first compound 0.0025 µM), 0.47; in assay [4] (first compound 0.007906 µM), 0.409; in assay [4] (first compound 0.025 µM), 0.326. Further, the relative viability worked out at 0.344 in assay [4] (first compound 0.07906 µM) and 0.374 in assay [4] (first compound 0.25 µM).
With SK-MES-1, the relative viability amounted to 0.964 in assay [1] (first compound 0.0025 µM); 0.997 in assay [1] (first compound 0.007906 µM); 1.04 in assay [1] (first compound 0.025 µM); 0.878 in assay [1] (first compound 0.07906 µM); 1.01 in assay [1] (first compound 0.25 µM); 0.701 in assay [2] (first compound 0.0025 µM). The relative viability in assay [2] (first compound 0.007906 µM) was found to be 0.671; in assay [2] (first compound 0.025 µM), 0.629; in assay [2] (first compound 0.07906 µM) it was 0.686; in assay [2] (first compound 0.25 µM), 0.704; in assay [3] (first compound 0.08 µM), 1.18; in assay [3] (first compound 0.253 µM) it was 1.08. In addition, the relative viability in assay [3] (first compound 0.8 µM) was 1.04; in assay [3] (first compound 2.53 µM), 1.2; in assay [3] (first compound 8 µM), 1.02; in assay [4] (first compound 0.0025 µM), 0.562; in assay [4] (first compound 0.007906 µM), 0.607; in assay [4] (first compound 0.025 µM), 0.604. Besides, the relative viability is 0.591 in assay [4] (first compound 0.07906 µM) and 0.592 in assay [4] (first compound 0.25 µM).
For the cell line SW 1573, the relative viability in assay [1] (first compound 0.0025 µM) is 0.756; in assay [1] (first compound 0.007906 µM) it was 0.699; in assay [1] (first compound 0.025 µM), 0.764; in assay [1] (first compound 0.07906 µM), 0.715; in assay [1] (first compound 0.25 µM) it was 0.917; in assay [2] (first compound 0.0025 µM), 0.239. In addition, the relative viability in assay [2] (first compound 0.007906 µM) stood at 0.236; in assay [2] (first compound 0.025 µM), 0.115; in assay [2] (first compound 0.07906 µM), 0.123; in assay [2] (first compound 0.25 µM) it was 0.117; in assay [3] (first compound 0.08 µM), 0.859; in assay [3] (first compound 0.253 µM), 0.851. Besides, the relative viability in assay [3] (first compound 0.8 µM) worked out at 0.7; in assay [3] (first compound 2.53 µM), 0.588; in assay [3] (first compound 8 µM) it was 0.666; in assay [4] (first compound 0.0025 µM) it was 0.496; in assay [4] (first compound 0.007906 µM) it was 0.574; in assay [4] (first compound 0.025 µM) it was 0.622. Further, the relative viability came to 0.59 in assay [4] (first compound 0.07906 µM) and 0.654 in assay [4] (first compound 0.25 µM).

(Values after the supplement of paper PMC10307832.)
